System: mouse models with androgenic hair loss
Assay: Therapeutic effect of microneedle patches in mouse models with androgenic hair loss built by topical testosterone
Assay type: in vivo
Conditions: testosterone-induced androgenic hair loss mice; patches used 15 days, replaced every three days; Minoxidil solution applied daily for 13 days
Description: The therapeutic effect of the anti-hair loss and hair growth integrated core-shell microneedle patch is tested, the mouse models with androgenic hair loss are built by topical administration of testosterone solution every day for 28 days, five groups of mouse models with androgenic hair loss are used to test the effect of the microneedle patch, one of the groups is a model group to which only testosterone solution is applied, the blank microneedle patch, the nano-enzyme microneedle patch (prepared in Comparative Example 1) and the core-shell microneedle patch (prepared in Embodiment 1) are used on the other three groups of mouse models with androgenic hair loss respectively, the patches are used for 15 days and replaced every three days, a Minoxidil solution is used for the last group and applied every day for 13 consecutive days. The measurement results are shown in Table 1, and the therapeutic effect of the anti-hair loss and hair growth integrated core-shell microneedle patch is judged by scoring the hair diameter, percentage of Ki67 positive cells and hair cycle.

`Nc1cc(N2CCCCC2)nc(N)[n+]1[O-]` [Minoxidil] was tested, and the Hair cycle score was 22, the Hair diameter was 11 μm and the Ki67 positive cells was 20%.

Source: US20230071574A1, “ANTI-HAIR LOSS AND HAIR GROWTH INTEGRATED CORE-SHELL MICRONEEDLE PATCH” (Tangyi Holdings (Shenzhen) Limited, priority 2021, published 2023)
